Test results: US20210040089A1, “KRAS MUTANT PROTEIN INHIBITORS” (Jacobio Pharmaceuticals Co., Ltd., priority 2019, published 2021)
pIC50: −log10 of the molar value.

Assays:
KRAS G12C = biological target: T1, KRAS G12C (Homo sapiens, UniProt P01116, G12C); assay: SOS1 catalyzed nucleotide exchange assay (TR-FRET); type: biochemical; settings: GDP-loaded HIS-KRAS(G12C), 1 hour pre-incubation with compound
T1 construct: HIS-KRAS (G12C, aa 2-185, Sino biological); purchased Sino biological
Method in brief: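 EDTA-stripped, GDP-loaded His-KRAS G12C (aa 2-185; 3 nM final) preincubated 1 h with compound, then SOS1 ExD (aa 564-1049; 2 μM) and BODIPY-FL GTP (80 nM) added for 4 h at 25 °C. TR-FRET via anti-His Tb cryptate (515/486 nm ratio); IC50 from 4-parameter logistic fit.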

[1] = test system: Phospho-ERK1/2(THR202/TYR204) in NCI-H358 cells express KRAS G12C; assay: Phospho-ERK1/2(THR202/TYR204) HTRF assay; type: cell-based; settings: Homo sapiens; NCI-H358, 2 hours incubation; read-out: p-ERK inhibition in NCI-H358 IC50
Method in brief: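 Compounds applied to attached cells for 2 h at 37 °C in RPMI 1640 with 0.1% FBS. Lysate phospho-ERK1/2 detected by HTRF after 4 h antibody incubation at 25 °C; IC50 from 4-parameter logistic fit.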

[2] = test system: NCI-H358 cells express KRAS G12C; assay: Cell growth inhibition assay (CCK-8); type: cell-based; settings: Homo sapiens, 144 h; NCI-H358, 6 days incubation
Method in brief: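 Antiproliferative read-out: KRAS G12C-mutant NCI-H358 lung cancer cells (3000/well) exposed to compounds in RPMI 1640 with 10% FBS for 6 days at 37°C. Viability by CCK-8 (OD450) after 1.5-2 h; IC50 from 4-parameter logistic fit.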

NCI-H1373 cells = assay: NCI-H1373 xenograft model; type: in vivo, female BALB/c mice; settings: Table 2, 10 mg/kg, BID; for TGI % / Tumor volume at the end (Day 22): Day 22
Description: 4. NCI-H1373 xenograft model
NCI-H1373 cells (5.0E+06 cells) were injected subcutaneously into the right flank of female BALB/c mice (6-8 weeks) in a mixture with Matrigel (BD Bioscience). Mice were monitored daily and caliper measurements began when tumors became visible. Tumor volume was calculated by measuring two perpendicular diameters using the following formula: (L*w^2)/2 in which L and w refer to the length and width tumor diameter, respectively. When the average tumor volume reached 150-200 mm^3, mice were grouped (n=6/group) and treated with compounds. Tumor volume and mice weight was measured twice a week during treatment (˜3 weeks). Tumor growth inhibition rates were calculated by TGI %=(1−(Vt−Vt0)/(Vc−Vc0))*100%, where Vc, Vt are the mean tumor volume of control and treated groups at the end of the study, and Vc0 and Vt0 are the mean tumor volume of control and treated groups at the start.

T1 sequence (P01116 2-185 isoform P01116-2 G12C): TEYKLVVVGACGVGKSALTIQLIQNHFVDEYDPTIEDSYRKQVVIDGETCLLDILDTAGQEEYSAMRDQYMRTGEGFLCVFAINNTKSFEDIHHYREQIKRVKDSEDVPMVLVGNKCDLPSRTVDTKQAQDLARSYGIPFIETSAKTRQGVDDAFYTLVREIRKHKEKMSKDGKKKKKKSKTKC

Cc1cccc2cccc(N3CCc4c(nc(OCC5(CN(C)C)CC5)nc4N4CCN(C(=O)/C=C/CF)[C@@H](CC#N)C4)C3)c12 [Compound 68, (S,E)-2-(4-(2-((1-((dimethylamino)methyl)cyclopropyl)methoxy)-7-(8-methylnaphthalen-1-yl)-5,6,7,8-tetrahydropyrido[3,4-d]pyrimidin-4-yl)-1-(4-fluorobut-2-enoyl)piperazin-2-yl)acetonitrile]
pIC50 (KRAS G12C): 8.80
pIC50 [1]: 7.16
pIC50 [2]: 7.29
TGI % (NCI-H1373 cells): 82.6%
Tumor volume at the end (Day 22) (NCI-H1373 cells): 490 mm^3
Tumor volume at the start (NCI-H1373 cells): 191 mm^3

C=C(F)C(=O)N1CCN(c2nc(OCC3(CN(C)C)CC3)nc3c2CCN(c2cccc4cccc(C)c24)C3)C[C@@H]1CC#N [Compound 83, (S)-2-(4-(2-((1-((dimethylamino)methyl)cyclopropyl)methoxy)-7-(8-methylnaphthalen-1-yl)-5,6,7,8-tetrahydropyrido[3,4-d]pyrimidin-4-yl)-1-(2-fluoroacryloyl)piperazin-2-yl)acetonitrile]
pIC50 (KRAS G12C): 8.41
pIC50 [1]: 6.72
pIC50 [2]: 6.93
TGI % (NCI-H1373 cells): 89.4%
Tumor volume at the end (Day 22) (NCI-H1373 cells): 374 mm^3
Tumor volume at the start (NCI-H1373 cells): 191 mm^3
